Assays:
TLR9 [1] = assay: TLR9-induced IL-6 in murine splenocytes (CpG1826, ELISA); assay type: cell-based, C57BL/6 mice; conditions: Mus musculus, Splenocyte; read-out: TLR9-ligand induced IL-6 in murine splenocytes IC50
Description: 2.2 Determination of TLR9-Induced IL-6 in Murine Splenocytes
(§1) Spleens were dissected from C57BL/6 mice immediately following euthanasia. Excess fat was trimmed from the spleens prior to mashing the spleen through a […] cell strainer using a plunger from a 5 ml syringe. A single cell suspension was prepared and the volume was adjusted to 15 ml in a 50 ml Falcon tube using cold PBS. Cells were centrifuged at 1500 rpm for 5 minutes at 4° C. degrees prior to removal of supernatant and re-suspension in 5 ml of red blood cell lysis buffer per spleen and incubation for 5 minutes at room temperature. Ice cold PBS (30 ml) was added to the cells prior to centrifugation at 1500 rpm for 5 minutes at 4° C. The supernatant was removed and the cells were washed twice with 40 ml of murine splenocyte culture media (MSCM). […] Cells were re-suspended in 10-20 ml of MSCM and counted using a Countess cell counter. […]
After overnight culture, cells were transferred to 96-well V-bottomed plates and centrifuged at 2000 rpm for 5 minutes at room temperature. Subsequently 150 μl of each culture supernatant was transferred to 96-well flat-bottomed plates and […] were measured using commercially available mouse IL-6 sandwich ELISA kit (R&D systems). […] IL-6 levels were measured using a SpectraMax 190 Plate Reader (450 nm) and analyzed using SoftMax Pro and GraphPad Prism software.

TLR9 [2] = assay: TLR9-induced IFN-alpha in murine splenocytes (CpG1585, ELISA); assay type: cell-based, 129/Sv mice; conditions: Mus musculus, Splenocyte; read-out: TLR9-ligand induced IFNα in murine splenocytes IC50
Description: 2.3 Determination of TLR9-Induced IFN-Alpha in Murine Splenocytes
as §1, with “Excess” for “Spleens were dissected from C57BL/6 mice immediately following euthanasia. Excess”
After overnight culture, cells were transferred to 96-well V-bottomed plates and centrifuged at 2000 rpm for 5 minutes at room temperature. Subsequently 150 μl of each culture supernatant was transferred to 96-well flat-bottomed plates and […] were measured using commercially available mouse IFN-alpha sandwich ELISA kit (PBL Interferon Source). […] IFN-alpha levels were measured within 5 minutes using a SpectraMax 190 Plate Reader (450 nm) and analyzed using SoftMax Pro and GraphPad Prism software.

Compound: CCC(=O)N1CC[C@H](Nc2ncnc3c2CN(c2cnc(OC)c(C(F)(F)F)c2)CC3)C1 [Example 67, 1-{(S)-3-[6-(6-Methoxy-5-trifluoromethyl-pyridin-3-yl)-5,6,7,8-tetrahydro-pyrido[4,3-d]pyrimidin-4-ylamino]-pyrrolidin-1-yl}-propan-1-one]
- IC50 (TLR9 [1]): 96 nM
- IC50 (TLR9 [2]): > 2220 nM
